Square brackets hold non-standard residues; d marks the D form. Side chains are listed from the residue outwards. Peptide text beside a SMILES is read from it. * marks the point of attachment. ξ: configuration not given here. DOTA(Lu)NH(CH2)6NHCOCH2 = O=C(CN1CCN2CCN3CCN(CC1)CC(=O)[O][Lu]([O]C(=O)C2)[O]C(=O)C3)NCCCCCCNC(=O)C*; DOTA(Lu) = O=C1CN2CCN3CCN(CC(=O)*)CCN(CC2)CC(=O)[O][Lu]([O]1)[O]C(=O)C3; ξDihydroorotoyl = O=C1CC(C(=O)*)NC(=O)N1; Phe(4-NH2) = Nc1ccc(C[C@H](N)C(=O)O)cc1; 3Pal = N[C@@H](Cc1cccnc1)C(=O)O; 4Pal = N[C@@H](Cc1ccncc1)C(=O)O; NMeOrn = CN[C@@H](CCCN)C(=O)O; NMehCys = CN[C@@H](CCS)C(=O)O; NMeK = CN[C@@H](CCCCN)C(=O)O; NMeC = CN[C@@H](CS)C(=O)O; NMeA = CN[C@@H](C)C(=O)O; Ahx = NCCCCCC(=O)O
Each molecule was assayed against SSTR2 (Homo sapiens, UniProt P30874) (assay: SSTR binding affinity by radioligand binding competition assay ([125I]-Tyr11-Somatostatin, membrane extracts)). Settings: SSTR2 Ki, radioligand competition, [125I]-Tyr11-Somatostatin 0.1 nM, membrane extracts; Ki from IC50 by Cheng Prusoff.
Experimental: Macrocyclic peptides in this invention were tested for binding to SSTR protein by a radioligand binding competition assay. For radioligand binding assay, competition binding is performed in duplicate in the wells of a 96 well plate containing binding buffer (HEPES 25 mM pH 7.4, MgCl2 5 mM, CaCl2 1 mM, BSA 0.5%, Saponine 10 μg/ml)), membrane extracts (0.6 μg protein/well), radiotracer ([125I]-Tyr11-Somatostatin, Perkin Elmer NEX389) and test compound. Nonspecific binding is determined by co-incubation with 200-fold excess of cold competitor (SST28). The samples are incubated in a final volume of 0.1 ml for 60 min at room temperature and then filtered over UniFilter-96 GF/C (Revvity 6055690) filter plates. Filters are washed six times with 0.5 ml of ice-cold washing buffer (HEPES 25 mM pH 7.4, MgCl2 5 mM, CaCl2 1 mM) and 50 μl of Microscint 20 (Packard) are added in each well. The plates are incubated 15 min on an orbital shaker and then counted with a TopCount™ for 1 min/well. For IC50 to Ki determination, the Cheng Prusoff equation is used: Ki=IC50/(1+ [tracer]/Kd). [Tracer] is 0.1 nM as mentioned above.

Chain of SSTR2 (P30874 whole entry): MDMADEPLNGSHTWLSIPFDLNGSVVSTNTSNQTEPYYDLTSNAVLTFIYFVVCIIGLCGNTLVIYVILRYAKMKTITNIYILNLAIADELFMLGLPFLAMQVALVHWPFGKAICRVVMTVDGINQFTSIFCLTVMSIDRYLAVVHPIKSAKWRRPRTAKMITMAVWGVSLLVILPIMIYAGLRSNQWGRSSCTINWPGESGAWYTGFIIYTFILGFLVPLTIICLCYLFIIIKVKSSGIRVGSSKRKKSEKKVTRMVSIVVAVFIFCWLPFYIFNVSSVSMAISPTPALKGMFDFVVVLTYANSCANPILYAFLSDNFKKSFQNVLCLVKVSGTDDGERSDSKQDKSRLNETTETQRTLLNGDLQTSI

Compound	Ki [nM]
CC(C)[C@@H]1NC(=O)[C@H](CCCCN)NC(=O)[C@@H](Cc2c[nH]c3ccccc23)NC(=O)[C@H](Cc2ccc(O)cc2)NC(=O)[C@H](CCCCNC(=O)CCCCCNC(=O)CN2CCN3CCN4CCN(CC2)CC(=O)[O][Lu]([O]C(=O)C3)[O]C(=O)C4)N(C)C(=O)[C@H](Cc2ccccc2)NC1=O [RB-0002670] (cyclo(F[NMeK]([Ahx-DOTA(Lu)])Y[dW]KV))	< 1
CC(C)[C@@H]1NC(=O)[C@H](CCCCN)NC(=O)[C@@H](Cc2c[nH]c3ccccc23)NC(=O)[C@H](Cc2ccc(O)cc2)NC(=O)[C@H](CSCC(=O)NCCCCCCNC(=O)CN2CCN3CCN4CCN(CC2)CC(=O)[O][Lu]([O]C(=O)C3)[O]C(=O)C4)N(C)C(=O)[C@H](Cc2ccccc2)NC1=O [RB-0002674] (cyclo(F[NMeC](DOTA(Lu)NH(CH2)6NHCOCH2)Y[dW]KV))	1 to 3.33

Same assay, conditions: radioligand competition, [125I]-Tyr11-Somatostatin 0.1 nM, membrane extracts; Ki from IC50 by Cheng Prusoff; read-out: SSTR2 Ki

Compound	Ki [nM]
C[C@@H](O)[C@@H]1NC(=O)[C@H](CC2CCNCC2)NC(=O)[C@@H]([C@@H](C)c2c[nH]c3ccccc23)NC(=O)[C@H](Cc2ccc(O)cc2)NC(=O)[C@H](CCCCNC(=O)CCC2C(=O)[O][Ga]3[O]C(=O)CN4CCN(CCN2CC4)CC(=O)[O]3)N(C)C(=O)[C@H](Cc2ccccc2)NC1=O (mixture of isomers) [RB-0006285]	1 to 3.33
C[C@@H](O)[C@@H]1NC(=O)[C@H](CN2CCNCC2)NC(=O)[C@@H]([C@@H](C)c2c[nH]c3ccccc23)NC(=O)[C@H](Cc2ccc(O)cc2)NC(=O)[C@H](CCCCNC(=O)CCC2C(=O)[O][Ga]3[O]C(=O)CN4CCN(CCN2CC4)CC(=O)[O]3)N(C)C(=O)[C@H](Cc2ccccc2)NC1=O (mixture of isomers) [RB-0006417]	1 to 3.33
CC(C)[C@@H]1NC(=O)[C@H](CCCCN)NC(=O)[C@@H](Cc2c[nH]c3ccccc23)NC(=O)[C@H](Cc2ccc(O)cc2)NC(=O)[C@H](CCCNC(=O)CCCCCNC(=O)CN2CCN3CCN4CCN(CC2)CC(=O)[O][Lu]([O]C(=O)C3)[O]C(=O)C4)N(C)C(=O)[C@H](Cc2ccccc2)NC1=O [RB-0002672] (cyclo(F[NMeOrn]([Ahx-DOTA(Lu)])Y[dW]KV))	1 to 3.33
CCN(C)CC(=O)[O][Lu]1[O]C(=O)CN(C)CCN(CCN(CC)CC(=O)NCCCCCCNC(=O)CCC[C@H]2C(=O)N[C@@H](CC3=CC=C(O)C=C3)C(=O)N[C@H](CC3=CNC4=C3C=CC=C4)C(=O)N[C@@H](CCCCN)C(=O)N[C@@H](C(C)C)C(=O)N[C@@H](CC3=CC=CC=C3)C(=O)N2C)CC(=O)[O]1 [RB-0002680] (HELM PEPTIDE1{F.[CN([C@@H](CCCC(=O)[*:3])C(=O)[*:2])[*:1]].Y.[dW].K.V}|CHEM1{[CCN(C)CC(=O)[O][Lu]1[O]C(=O)CN(C)CCN(CCN(CC)CC(=O)NCCCCCCN[*:1])CC(=O)[O]1]}$PEPTIDE1,CHEM1,2:R3-1:R1|PEPTIDE1,PEPTIDE1,1:R1-6:R2$$$V2.0)	1 to 3.33
C[C@@H](O)[C@@H]1NC(=O)[C@H](CCCCN)NC(=O)[C@@H](Cc2c[nH]c3ccccc23)NC(=O)[C@H](Cc2cccnc2)NC(=O)[C@H](CSCC(=O)NCCCCCCNC(=O)CN2CCN3CCN4CCN(CC2)CC(=O)[O][Lu]([O]C(=O)C3)[O]C(=O)C4)N(C)C(=O)[C@H](Cc2ccccc2)NC1=O [RB-0002946] (cyclo([3Pal][dW]KTF[NMeC](DOTA(Lu)NH(CH2)6NHCOCH2)))	10 to 33.3
C[C@@H](O)[C@@H]1NC(=O)[C@H](CCCCN)NC(=O)[C@@H](Cc2c[nH]c3ccccc23)NC(=O)[C@H](Cc2ccncc2)NC(=O)[C@H](CSCC(=O)NCCCCCCNC(=O)CN2CCN3CCN4CCN(CC2)CC(=O)[O][Lu]([O]C(=O)C3)[O]C(=O)C4)N(C)C(=O)[C@H](Cc2ccccc2)NC1=O [RB-0002947] (cyclo([4Pal][dW]KTF[NMeC](DOTA(Lu)NH(CH2)6NHCOCH2)))	3.33 to 10
C[C@@H](O)[C@@H]1NC(=O)[C@H](CCCCN)NC(=O)[C@@H](Cc2c[nH]c3ccccc23)NC(=O)[C@H](Cc2cccnc2)NC(=O)[C@H](CCSCC(=O)NCCCCCCNC(=O)CN2CCN3CCN4CCN(CC2)CC(=O)[O][Lu]([O]C(=O)C3)[O]C(=O)C4)N(C)C(=O)[C@H](Cc2ccccc2)NC1=O [RB-0003000] (cyclo([3Pal][dW]KTF[NMehCys](DOTA(Lu)NH(CH2)6NHCOCH2)))	< 1

Same assay, conditions: read-out: SSTR2 Ki

Ki [nM]	Compound
1 to 3.33	CC(=O)NCCCC[C@H]1C(=O)N[C@@H](Cc2ccc(O)cc2)C(=O)N[C@H](Cc2c[nH]c3ccccc23)C(=O)N[C@@H](CCCCN)C(=O)N[C@@H](C(C)C)C(=O)N[C@@H](Cc2ccccc2)C(=O)N1C [RB-0002329] (HELM PEPTIDE1{F.[CN([C@@H](CCCCN[*:3])C(=O)[*:2])[*:1]].Y.[dW].K.V}|PEPTIDE2{[ac]}$PEPTIDE1,PEPTIDE2,2:R3-1:R2|PEPTIDE1,PEPTIDE1,1:R1-6:R2$$$V2.0)
3.33 to 10	CC(=O)NCCCC[C@@H]1C(=O)N[C@@H](Cc2ccc(O)cc2)C(=O)N[C@H](Cc2c[nH]c3ccccc23)C(=O)N[C@@H](CCCCN)C(=O)N[C@@H](C(C)C)C(=O)N[C@@H](Cc2ccccc2)C(=O)N1C [RB-0002593] (HELM PEPTIDE1{F.[CN([C@H](CCCCN[*:3])C(=O)[*:2])[*:1]].Y.[dW].K.V}|PEPTIDE2{[ac]}$PEPTIDE1,PEPTIDE2,2:R3-1:R2|PEPTIDE1,PEPTIDE1,1:R1-6:R2$$$V2.0)
< 1	C[C@@H](O)[C@@H]1NC(=O)[C@H](CCCCN)NC(=O)[C@@H](Cc2c[nH]c3ccccc23)NC(=O)[C@H](Cc2ccc(O)cc2)NC(=O)[C@H](C)N(C)C(=O)[C@H](Cc2ccccc2)NC1=O [RB-0002594]
< 1	CC(C)[C@@H]1NC(=O)[C@H](CCCCN)NC(=O)[C@@H](Cc2c[nH]c3ccccc23)NC(=O)[C@H](Cc2ccc(O)c(O)c2)NC(=O)[C@H](C)N(C)C(=O)[C@H](Cc2ccccc2)NC1=O [RB-0002595]
< 1	CC(C)[C@@H]1NC(=O)[C@H](CCCCN)NC(=O)[C@@H](Cc2c[nH]c3ccccc23)NC(=O)[C@H](C(c2ccccc2)c2ccccc2)NC(=O)[C@H](C)N(C)C(=O)[C@H](Cc2ccccc2)NC1=O [RB-0002596] (HELM PEPTIDE1{[O=C([C@@H](N[*:1])C(c1ccccc1)c1ccccc1)[*:2]].[dW].K.V.F.[meA]}$PEPTIDE1,PEPTIDE1,1:R1-6:R2$$$V2.0)
1 to 3.33	CC(C)[C@@H]1NC(=O)[C@H](CCCCN)NC(=O)[C@@H](Cc2c[nH]c3ccccc23)NC(=O)[C@H](Cc2ccc(NC(=O)C3CC(=O)NC(=O)N3)cc2)NC(=O)[C@H](C)N(C)C(=O)[C@H](Cc2ccccc2)NC1=O (some centres unmarked) [RB-0002597] (cyclo(F[NMeA][Phe(4-NH2)](ξDihydroorotoyl)[dW]KV))

Compound	Ki [nM]
CC(C)[C@@H]1NC(=O)[C@H](CCCCN)NC(=O)[C@@H](Cc2ccc(NC(N)=O)cc2)NC(=O)[C@H](Cc2ccc(O)cc2)NC(=O)[C@H](C)N(C)C(=O)[C@H](Cc2ccccc2)NC1=O [RB-0002328] (HELM PEPTIDE1{F.[meA].Y.[NC(=O)Nc1ccc(C[C@@H](N[*:1])C(=O)[*:2])cc1].K.V}$PEPTIDE1,PEPTIDE1,1:R1-6:R2$$$V2.0)	1 to 3.33

Same assay, conditions: read-out: SSTR2 Ki; radioligand competition, [125I]-Tyr11-Somatostatin 0.1 nM, membrane extracts; Ki from IC50 by Cheng Prusoff

Compound	Ki [nM]
CC(C)[C@@H]1NC(=O)[C@H](CCCCN)NC(=O)[C@@H](Cc2c[nH]c3ccccc23)NC(=O)[C@H](Cc2ccc(O)cc2)NC(=O)[C@H](CCC(=O)NCCCCCCNC(=O)CN2CCN(CC(=O)O)CCN(CC(=O)O)CCN(CC(=O)O)CC2)N(C)C(=O)[C@H](Cc2ccccc2)NC1=O [RB-0002678] (HELM PEPTIDE1{F.[CN([C@@H](CCC(=O)[*:3])C(=O)[*:2])[*:1]].Y.[dW].K.V}|CHEM1{[O=C(O)CN1CCN(CC(=O)O)CCN(CC(=O)NCCCCCCN[*:1])CCN(CC(=O)O)CC1]}$PEPTIDE1,CHEM1,2:R3-1:R1|PEPTIDE1,PEPTIDE1,1:R1-6:R2$$$V2.0)	3.33 to 10
